Measured values as given in US9260439B2, “Dihydropyrrolopyrimidine derivatives” (PFIZER INC., priority 2014, dated 2016).

Biological target: truncated PI3Kα (p110α/iSH2 p85α) (Homo sapiens (Human), UniProt P42336)
Experiment: PI3KA_Act fluorescence polarization kinase assay (Ki)
Assay type: biochemical
Conditions: 1 mM ATP
In short: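 Ki values result from fitting fluorescence polarization signals to the Morrison equation for tight-binding competitive inhibitors. The detector was GST-Grp1 PH domain with TAMRA-PIP3, read after a 30 min room-temperature reaction of 0.5 nM truncated PI3Kα and 30 μM PIP2 at pH 7.4 in HEPES/NaCl/MgCl2/DTT/CHAPS buffer. Compounds were tested as 12-point 3-fold dilutions from 3 μM.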

Sequence of truncated PI3Kα (p110α/iSH2 p85α) (P42336 whole entry, the tested form may be a part): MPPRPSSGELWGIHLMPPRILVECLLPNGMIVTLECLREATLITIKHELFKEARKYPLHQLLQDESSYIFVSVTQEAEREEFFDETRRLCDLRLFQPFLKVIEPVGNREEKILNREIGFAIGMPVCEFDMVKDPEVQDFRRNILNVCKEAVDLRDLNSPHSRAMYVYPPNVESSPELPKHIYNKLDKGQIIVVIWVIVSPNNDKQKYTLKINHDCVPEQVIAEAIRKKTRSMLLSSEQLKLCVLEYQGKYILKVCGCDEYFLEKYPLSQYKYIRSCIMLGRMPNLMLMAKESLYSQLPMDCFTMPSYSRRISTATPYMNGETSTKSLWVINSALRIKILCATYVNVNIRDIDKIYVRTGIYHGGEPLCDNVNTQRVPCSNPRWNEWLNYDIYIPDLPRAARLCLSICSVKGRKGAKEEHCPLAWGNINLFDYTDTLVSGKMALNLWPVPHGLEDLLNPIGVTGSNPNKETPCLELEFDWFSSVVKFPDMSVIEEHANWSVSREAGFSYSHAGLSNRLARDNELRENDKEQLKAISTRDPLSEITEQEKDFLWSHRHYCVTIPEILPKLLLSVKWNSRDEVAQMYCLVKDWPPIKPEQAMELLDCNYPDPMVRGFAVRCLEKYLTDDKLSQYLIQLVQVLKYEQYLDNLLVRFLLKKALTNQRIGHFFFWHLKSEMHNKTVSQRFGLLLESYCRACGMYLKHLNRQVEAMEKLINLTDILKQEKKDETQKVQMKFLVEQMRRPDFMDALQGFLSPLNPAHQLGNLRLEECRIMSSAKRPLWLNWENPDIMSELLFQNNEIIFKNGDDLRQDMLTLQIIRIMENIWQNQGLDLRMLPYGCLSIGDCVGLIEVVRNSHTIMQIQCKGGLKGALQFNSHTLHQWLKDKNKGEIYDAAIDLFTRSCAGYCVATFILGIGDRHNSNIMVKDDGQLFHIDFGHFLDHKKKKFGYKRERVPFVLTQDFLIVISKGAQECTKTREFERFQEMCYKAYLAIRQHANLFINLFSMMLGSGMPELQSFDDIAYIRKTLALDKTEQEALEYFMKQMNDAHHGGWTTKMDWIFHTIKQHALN

| SMILES | PI3KA_Act Ki [nM] |
| --- | --- |
| C[C@]1(N2CCc3c(-c4cnc(N)nc4)nc(N4CCOCC4)nc32)CCN(C(=O)N2CC(O)C2)C1 [Example 366, {(3S)-3-[4-(2-aminopyrimidin-5-yl)-2-(morpholin-4-yl)-5,6-dihydro-7H-pyrrolo[2,3-d]pyrimidin-7-yl]-3-methylpyrrolidin-1-yl}(3-hydroxyazetidin-1-yl)methanone] | 0.021 |
| COC1CN(C(=O)N2CC[C@](C)(N3CCc4c(-c5cnc(N)nc5)nc(N5CCOCC5)nc43)C2)C1 [Example 367, {(3S)-3-[4-(2-aminopyrimidin-5-yl)-2-(morpholin-4-yl)-5,6-dihydro-7H-pyrrolo[2,3-d]pyrimidin-7-yl]-3-methylpyrrolidin-1-yl}(3-methoxyazetidin-1-yl)methanone] | <0.018 |
| COC1CN(C(=O)N2CC[C@@](C)(N3CCc4c(-c5cnc(N)nc5)nc(N5CCOCC5)nc43)C2)C1 [Example 368, {(3R)-3-[4-(2-aminopyrimidin-5-yl)-2-(morpholin-4-yl)-5,6-dihydro-7H-pyrrolo[2,3-d]pyrimidin-7-yl]-3-methylpyrrolidin-1-yl}(3-methoxyazetidin-1-yl)methanone] | 0.127 |
| CC1(O)CN(C(=O)N2CC[C@](C)(N3CCc4c(-c5cnc(N)nc5)nc(N5CCOCC5)nc43)C2)C1 [Example 369, {(3S)-3-[4-(2-aminopyrimidin-5-yl)-2-(morpholin-4-yl)-5,6-dihydro-7H-pyrrolo[2,3-d]pyrimidin-7-yl]-3-methylpyrrolidin-1-yl}(3-hydroxy-3-methylazetidin-1-yl)methanone] | <0.018 |
| CC(C)(C)OC(=O)N1CC[C@H]1C(=O)N1CC[C@](C)(N2CCc3c(-c4cnc(N)nc4)nc(N4CCOCC4)nc32)C1 [Example 370, tert-butyl (2S)-2-({(3S)-3-[4-(2-aminopyrimidin-5-yl)-2-(morpholin-4-yl)-5,6-dihydro-7H-pyrrolo[2,3-d]pyrimidin-7-yl]-3-methylpyrrolidin-1-yl}carbonyl)azetidine-1-carboxylate] | 0.184 |
| C[C@]1(N2CCc3c(-c4cnc(N)nc4)nc(N4CCOCC4)nc32)CCN(C(=O)[C@@H]2CCCO2)C1 [Example 371, {(3S)-3-[4-(2-aminopyrimidin-5-yl)-2-(morpholin-4-yl)-5,6-dihydro-7H-pyrrolo[2,3-d]pyrimidin-7-yl]-3-methylpyrrolidin-1-yl}[(2S)-tetrahydrofuran-2-yl]methanone] | 0.091 |
| C[C@]1(N2CCc3c(-c4cnc(N)nc4)nc(N4CCOCC4)nc32)CCN(C(=O)[C@H]2CCCO2)C1 [Example 372, {(3S)-3-[4-(2-aminopyrimidin-5-yl)-2-(morpholin-4-yl)-5,6-dihydro-7H-pyrrolo[2,3-d]pyrimidin-7-yl]-3-methylpyrrolidin-1-yl}[(2R)-tetrahydrofuran-2-yl]methanone] | 0.040 |
| C[C@]1(N2CCc3c(-c4cnc(N)nc4)nc(N4CCOCC4)nc32)CCN(C(=O)[C@H]2CCOC2)C1 [Example 373, {(3S)-3-[4-(2-aminopyrimidin-5-yl)-2-(morpholin-4-yl)-5,6-dihydro-7H-pyrrolo[2,3-d]pyrimidin-7-yl]-3-methylpyrrolidin-1-yl}[(3S)-tetrahydrofuran-3-yl]methanone] | 0.028 |
| C[C@]1(N2CCc3c(-c4cnc(N)nc4)nc(N4CCOCC4)nc32)CCN(C(=O)[C@@H]2CCOC2)C1 [Example 374, {(3S)-3-[4-(2-aminopyrimidin-5-yl)-2-(morpholin-4-yl)-5,6-dihydro-7H-pyrrolo[2,3-d]pyrimidin-7-yl]-3-methylpyrrolidin-1-yl}[(3R)-tetrahydrofuran-3-yl]methanone] | 0.027 |
| C[C@]1(N2CCc3c(-c4cnc(N)nc4)nc(N4CCOCC4)nc32)CCN(C(=O)[C@@H]2CCCN2)C1.Cl [Example 377, {(3S)-3-[4-(2-aminopyrimidin-5-yl)-2-(morpholin-4-yl)-5,6-dihydro-7H-pyrrolo[2,3-d]pyrimidin-7-yl]-3-methylpyrrolidin-1-yl}[(2S)-pyrrolidin-2-yl]methanone hydrochloride] | 0.026 |
| C[C@]1(N2CCc3c(-c4cnc(N)nc4)nc(N4CCOCC4)nc32)CCN(C(=O)[C@@H]2CCC(=O)N2)C1 [Example 378, (5S)-5-({(3S)-3-[4-(2-aminopyrimidin-5-yl)-2-(morpholin-4-yl)-5,6-dihydro-7H-pyrrolo[2,3-d]pyrimidin-7-yl]-3-methylpyrrolidin-1-yl}carbonyl)pyrrolidin-2-one] | 0.082 |
| C[C@]1(N2CCc3c(-c4cnc(N)nc4)nc(N4CCOCC4)nc32)CCN(C(=O)[C@H]2CCC(=O)N2)C1 [Example 379, (5R)-5-({(3S)-3-[4-(2-aminopyrimidin-5-yl)-2-(morpholin-4-yl)-5,6-dihydro-7H-pyrrolo[2,3-d]pyrimidin-7-yl]-3-methylpyrrolidin-1-yl}carbonyl)pyrrolidin-2-one] | 0.061 |
| C[C@]1(N2CCc3c(-c4cnc(N)nc4)nc(N4CCOCC4)nc32)CCN(C(=O)C2(N)CCOC2)C1.Cl (stereo partly drawn) [Example 380, {(3S)-3-[4-(2-aminopyrimidin-5-yl)-2-(morpholin-4-yl)-5,6-dihydro-7H-pyrrolo[2,3-d]pyrimidin-7-yl]-3-methylpyrrolidin-1-yl}(3-aminotetrahydrofuran-3-yl)methanone hydrochloride] | 0.030 |
| C[C@]1(N2CCc3c(-c4cnc(N)nc4)nc(N4CCOCC4)nc32)CCN(C(=O)[C@H]2CCCN2)C1.Cl [Example 382, {(3S)-3-[4-(2-aminopyrimidin-5-yl)-2-(morpholin-4-yl)-5,6-dihydro-7H-pyrrolo[2,3-d]pyrimidin-7-yl]-3-methylpyrrolidin-1-yl}[(2R)-pyrrolidin-2-yl]methanone hydrochloride] | <0.018 |
| C[C@]1(N2CCc3c(-c4cnc(N)nc4)nc(N4CCOCC4)nc32)CCN(C(=O)[C@]2(F)CCNC2)C1.Cl [Example 383, {(3S)-3-[4-(2-aminopyrimidin-5-yl)-2-(morpholin-4-yl)-5,6-dihydro-7H-pyrrolo[2,3-d]pyrimidin-7-yl]-3-methylpyrrolidin-1-yl}[(3S)-3-fluoropyrrolidin-3-yl]methanone hydrochloride] | <0.018 |
| C[C@]1(N2CCc3c(-c4cnc(N)nc4)nc(N4CCOCC4)nc32)CCN(C(=O)[C@@]2(F)CCNC2)C1.Cl [Example 384] | <0.018 |
| Cn1nccc1C(=O)N1CC[C@](C)(N2CCc3c(-c4cnc(N)nc4)nc(N4CCOCC4)nc32)C1 [Example 385, {(3S)-3-[4-(2-aminopyrimidin-5-yl)-2-(morpholin-4-yl)-5,6-dihydro-7H-pyrrolo[2,3-d]pyrimidin-7-yl]-3-methylpyrrolidin-1-yl}(1-methyl-1H-pyrazol-5-yl)methanone] | <0.018 |
| Cc1n[nH]cc1C(=O)N1CC[C@](C)(N2CCc3c(-c4cnc(N)nc4)nc(N4CCOCC4)nc32)C1 [Example 386, {(3S)-3-[4-(2-aminopyrimidin-5-yl)-2-(morpholin-4-yl)-5,6-dihydro-7H-pyrrolo[2,3-d]pyrimidin-7-yl]-3-methylpyrrolidin-1-yl}(3-methyl-1H-pyrazol-4-yl)methanone] | <0.018 |
| C[C@]1(N2CCc3c(-c4cnc(N)nc4)nc(N4CCOCC4)nc32)CCN(C(=O)c2cn[nH]c2)C1 [Example 387, {(3S)-3-[4-(2-aminopyrimidin-5-yl)-2-(morpholin-4-yl)-5,6-dihydro-7H-pyrrolo[2,3-d]pyrimidin-7-yl]-3-methylpyrrolidin-1-yl}(1H-pyrazol-4-yl)methanone] | <0.018 |
| C[C@]1(N2CCc3c(-c4cnc(N)nc4)nc(N4CCOCC4)nc32)CCN(C(=O)c2ncc[nH]2)C1 [Example 388, {(3S)-3-[4-(2-aminopyrimidin-5-yl)-2-(morpholin-4-yl)-5,6-dihydro-7H-pyrrolo[2,3-d]pyrimidin-7-yl]-3-methylpyrrolidin-1-yl}(1H-imidazol-2-yl)methanone] | <0.018 |
| C[C@]1(N2CCc3c(-c4cnc(N)nc4)nc(N4CCOCC4)nc32)CCN(C(=O)c2cc[nH]n2)C1 [Example 389, {(3S)-3-[4-(2-aminopyrimidin-5-yl)-2-(morpholin-4-yl)-5,6-dihydro-7H-pyrrolo[2,3-d]pyrimidin-7-yl]-3-methylpyrrolidin-1-yl}(1H-pyrazol-3-yl)methanone] | <0.018 |
| Cn1ccnc1C(=O)N1CC[C@](C)(N2CCc3c(-c4cnc(N)nc4)nc(N4CCOCC4)nc32)C1 [Example 390, {(3S)-3-[4-(2-aminopyrimidin-5-yl)-2-(morpholin-4-yl)-5,6-dihydro-7H-pyrrolo[2,3-d]pyrimidin-7-yl]-3-methylpyrrolidin-1-yl}(1-methyl-1H-imidazol-2-yl)methanone] | 0.084 |
| Cn1ccc(C(=O)N2CC[C@](C)(N3CCc4c(-c5cnc(N)nc5)nc(N5CCOCC5)nc43)C2)n1 [Example 391, {(3S)-3-[4-(2-aminopyrimidin-5-yl)-2-(morpholin-4-yl)-5,6-dihydro-7H-pyrrolo[2,3-d]pyrimidin-7-yl]-3-methylpyrrolidin-1-yl}(1-methyl-1H-pyrazol-3-yl)methanone] | 0.022 |
| CNC(=N)N1CC[C@](C)(N2CCc3c(-c4cnc(N)nc4)nc(N4CCOCC4)nc32)C1 [Example 392, (3S)-3-[4-(2-aminopyrimidin-5-yl)-2-(morpholin-4-yl)-5,6-dihydro-7H-pyrrolo[2,3-d]pyrimidin-7-yl]-N,3-dimethylpyrrolidine-1-carboximidamide] | 0.101 |
